Measured values: patent US6486305B1, “METHOD OF MODULATING THE EFFICIENCY OF TRANSLATION TERMINATION AND DEGRADATION OF ABERRANT MRNA INVOLVING A SURVEILLANCE COMPLEX COMPRISING HUMAN UPF1P, EUCARYOTIC RELEASE FACTOR 1 AND EUCARYOTIC RELEASE FACTOR 3” (priority 1998, dated 2002)
Numbering of substitutions follows the chain as printed. In names and notes the source's numbering stands. Entries after “also recorded” stand apart in the source; their conditions may differ.

What was measured:
[1] = target: T1, Upf1p-eRF3 interaction (Saccharomyces cerevisiae, UniProt P30771); assay: GST-eRF3 pull-down of purified FLAG-Upf1p with immunoblotting; type: binding, yeast; details: 1 mM ATP, 1 mM GTP, or 100 μg/ml poly(U) RNA
T1 construct: FLAG (N); made in house; host or cells: GST-eRF3: E. coli BL21(DE3) pLysS with pGEX2T-SUP35
T1 sequence (P30771 1-971): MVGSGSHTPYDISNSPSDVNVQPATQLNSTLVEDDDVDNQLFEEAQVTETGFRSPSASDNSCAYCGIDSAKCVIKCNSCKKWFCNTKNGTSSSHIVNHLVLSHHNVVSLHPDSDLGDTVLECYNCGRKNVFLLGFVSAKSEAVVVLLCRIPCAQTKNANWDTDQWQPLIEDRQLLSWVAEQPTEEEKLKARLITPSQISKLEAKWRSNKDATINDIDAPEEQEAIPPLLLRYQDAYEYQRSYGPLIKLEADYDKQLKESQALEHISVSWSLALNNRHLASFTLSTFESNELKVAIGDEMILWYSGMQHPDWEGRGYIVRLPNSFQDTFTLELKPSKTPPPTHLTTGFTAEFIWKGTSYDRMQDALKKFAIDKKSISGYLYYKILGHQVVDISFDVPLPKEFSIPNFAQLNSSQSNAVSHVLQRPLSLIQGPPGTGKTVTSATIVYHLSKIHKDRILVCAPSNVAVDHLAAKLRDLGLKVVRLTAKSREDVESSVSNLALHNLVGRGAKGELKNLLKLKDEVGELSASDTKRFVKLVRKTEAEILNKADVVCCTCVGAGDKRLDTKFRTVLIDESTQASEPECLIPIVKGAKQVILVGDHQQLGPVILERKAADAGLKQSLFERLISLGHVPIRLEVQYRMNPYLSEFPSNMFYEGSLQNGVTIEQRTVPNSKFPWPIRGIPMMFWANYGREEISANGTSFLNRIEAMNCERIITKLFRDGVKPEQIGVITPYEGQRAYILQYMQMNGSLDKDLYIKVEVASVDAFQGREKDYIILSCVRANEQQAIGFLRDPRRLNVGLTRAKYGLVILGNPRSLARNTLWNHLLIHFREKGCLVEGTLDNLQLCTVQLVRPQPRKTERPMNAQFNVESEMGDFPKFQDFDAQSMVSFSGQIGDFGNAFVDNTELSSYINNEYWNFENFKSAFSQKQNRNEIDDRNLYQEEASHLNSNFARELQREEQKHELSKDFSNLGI
Method: (§1) FIGS. 1A-1B. The yeast Upf1 protein interacts specifically with the peptidyl release factors. (1A) GST-eRF1 or GST-eRF3 […] proteins bind specifically to Upf1p in a yeast extract. Cytoplasmic extracts from a yeast strain BJ3505 transformed with either pG-1 (vector) or pG-1FLAGUPF1 (Flag-Upf1p) were prepared in IBTB and incubated with 30 μl GST, GST-eRF1 or GST-eRF3 sepharose-protein complexes. The sepharose-protein complexes were washed 2 times in IBTB (see materials and methods), resuspended in SDS-PAGE loading buffer, separated on an 8% SDS-PAGE gel and immunoblotted using anti-FLAG antibody. (1B) Upf1p interacts directly with both eRF1 and eRF3. Upf1p was purified as described previously (Czaplinski et al. 1995). 200 ng of Upf1p was added to 10 μl of GST, GST-eRF1 or GST-eRF3 sepharose-protein complexes in a total reaction volume of 200 μl in IBTB supplemented with KCl to the final concentration indicated above each lane. After 1 hour at 4° C. sepharose-protein complexes were washed for 3 minutes with 1 ml of IBTB supplemented with KCl to the final concentration indicated above each lane. The purified sepharose-protein complexes were resuspended in SDS-PAGE loading buffer and separated on a 7.5% SDS-PAGE gel and immunoblotted as in (A).
(§2) FIGS. 3A-3B. eRF3 and RNA compete for binding to Upf1p. (3A) Poly(U) RNA prevents Upf1p from binding to eRF3. Reaction mixtures were prepared as described in FIG. 1B, except that binding was performed in TBSTB (TBST with 100 μg/ml BSA) and reaction mixtures contained 1 mM ATP, 1 mM GTP, or 100 μg/ml poly(U) RNA as indicated above each lane. The reaction mixtures were mixed for 1 hour at 4° C. Following mixing, the complexes were washed as in FIG. 1B with TBSTB containing 1 mM ATP, 1 mM GTP, or 100 μg/ml poly(U) RNA as indicated above each lane. […]
(§3) Further, purified Flag-Upf1p with poly(U) RNA was incubated in the presence or absence of ATP. Following incubation, GST-eRF3 was added to the reaction mixtures and the Upf1-eRF3 interaction was monitored by immunoblotting analysis as before.

[2] = tested on: isogenic wild-type and upf3Δ strains; assay: Paromomycin sensitivity, zone of growth inhibition around a disc on a lawn of cells; type: cell-based, Saccharomyces cerevisiae
Method: FIG. 11. Paromomycin sensitivity was monitored in isogenic wild-type and upf3Δ strains by placing a disc containing 1 mg of paromomycin onto a lawn of cells and determining the zone of growth inhibition around the disc.
Paromomycin sensitivity was monitored in isogenic wild-type and upf3Δ strains by placing a disc containing 1 mg of paromomycin onto a lawn of cells and determining the zone of growth inhibition around the disc (FIG. 11).

[3] = tested on: −1 ribosomal frameshifting; assay: β-galactosidase assay of −1 ribosomal frameshifting in the presence of paromomycin; type: cell-based, Saccharomyces cerevisiae
Method: Cloning of UPF3: The strategy used to clone the UPF3 gene was the same that was used to clone UPF2 (Cui, Y, K. W. Hagan, S. Zhang, and Peltz, S. W. (1995)). […] Killer assays, frameshifting assays and extraction and analysis of total nucleic acids: The killer assay was carried out as previously described (Dinman, J. D., and Wickner, R. B. (1992)) by replica plating colonies onto 4.7 MB plates newly seeded with a lawn of 5×47 killer indicator cells (0.5 ml of a suspension at 1 unit of optical density at 550 nm per ml per plate). After 2 days at 20° C., killer activity was observed as a zone of growth inhibition around the killer colonies. To quantitate loss of killer activity, colonies that had been identified as killer^+ were re-streaked for single colonies and the percentage of killer^+ colonies were determined. The efficiencies of −1 frameshifting were determined as previously described (Cui, Y. Dinman, J. D., and Peltz, S. W. (1996); Dinman, J. D., Ruiz-Echevarria, M. J., Czaplinski, K. and Peltz, S. W. (1 997b)) using the 0-frame control (pTI25) and −1 reporter (pF8) plasmids. […]
The effect of paromomycin on −1 ribosomal frameshifting was analyzed further by β-galactosidase assay using plasmids pF8 (−1 frameshift reporter construct) or pTI25 (zero frame control) in isogenic wild-type and upf3Δ strains. […]

[4] = target: T2, Upf1p-eRF1 interaction (Saccharomyces cerevisiae, UniProt P30771, K436A); assay: GST-eRF1 pull-down of purified FLAG-Upf1p with immunoblotting; type: binding, yeast; details: GST-eRF1, various KCl concentrations
T2 construct: FLAG (N); made in house; host or cells: GST-eRF1: E. coli BL21(DE3) pLysS with pGEX2T-SUP45
Method: as §1, with “After 1 hour at 4° C. sepharose-protein complexes were washed for 3 minutes with 1 ml of IBTB supplemented with KCl to the final concentration indicated above each lane. The purified sepharose-protein complexes were resuspended in SDS-PAGE loading buffer and separated on a 7.5% SDS-PAGE gel and immunoblotted as in (A).” left out
Previous results have shown that strains harboring mutations in the conserved lysine residue in position 436 of the Upf1p (K436) result in stabilization of nonsense-containing mRNAs and a nonsense suppression phenotype (Weng et al., 1996a). […] Reaction mixtures containing the K436A form of Upf1p, GST-eRF1 and various KCl concentrations were prepared,and their interaction was monitored as described above.

[5] = target: T3, Upf1p-eRF3 interaction (Saccharomyces cerevisiae, UniProt P30771, K436A); assay: GST-eRF3 pull-down of purified FLAG-Upf1p with immunoblotting; type: binding, yeast; details: GST-eRF3
T3 construct: FLAG (N); made in house; host or cells: GST-eRF3: E. coli BL21(DE3) pLysS with pGEX2T-SUP35
Method: as §1, §2, §3

T3 sequence (P30771 whole entry K436A): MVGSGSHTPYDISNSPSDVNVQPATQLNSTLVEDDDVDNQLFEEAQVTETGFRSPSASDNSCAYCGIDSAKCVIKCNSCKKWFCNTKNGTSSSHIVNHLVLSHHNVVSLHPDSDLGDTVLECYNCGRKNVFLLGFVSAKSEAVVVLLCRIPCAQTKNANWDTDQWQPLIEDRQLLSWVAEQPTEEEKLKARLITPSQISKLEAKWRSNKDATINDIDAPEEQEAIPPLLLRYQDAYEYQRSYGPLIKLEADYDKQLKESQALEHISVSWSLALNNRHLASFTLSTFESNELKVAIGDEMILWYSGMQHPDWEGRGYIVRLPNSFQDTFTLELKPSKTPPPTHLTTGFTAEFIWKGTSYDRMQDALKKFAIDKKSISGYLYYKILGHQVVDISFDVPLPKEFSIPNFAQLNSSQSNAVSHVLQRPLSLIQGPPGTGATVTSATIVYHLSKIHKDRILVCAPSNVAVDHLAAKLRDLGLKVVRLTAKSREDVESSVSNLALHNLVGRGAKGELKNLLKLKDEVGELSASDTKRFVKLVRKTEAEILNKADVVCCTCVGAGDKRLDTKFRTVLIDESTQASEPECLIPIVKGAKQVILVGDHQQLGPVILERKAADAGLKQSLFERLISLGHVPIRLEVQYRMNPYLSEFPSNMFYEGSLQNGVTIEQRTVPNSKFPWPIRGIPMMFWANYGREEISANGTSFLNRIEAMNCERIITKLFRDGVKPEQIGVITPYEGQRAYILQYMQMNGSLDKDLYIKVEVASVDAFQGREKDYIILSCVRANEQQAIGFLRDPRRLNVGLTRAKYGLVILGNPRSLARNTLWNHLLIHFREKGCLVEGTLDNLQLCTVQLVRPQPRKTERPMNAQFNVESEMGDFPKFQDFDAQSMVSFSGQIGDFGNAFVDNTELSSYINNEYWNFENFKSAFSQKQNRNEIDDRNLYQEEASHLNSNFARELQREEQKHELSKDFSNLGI
T2 sequence (P30771 whole entry K436A): as above

`Nc1ncnc2c1ncn2[C@@H]1O[C@H](COP(=O)(O)OP(=O)(O)OP(=O)(O)O)[C@@H](O)[C@H]1O` [ATP] was tested, and the “Effect on interaction between Upf1p and eRF3” value [1] was “did not affect the interaction; also recorded: did not prevent association of Upf1p with eRF3”.

In the case of `Nc1nc2c(ncn2[C@@H]2O[C@H](COP(=O)(O)OP(=O)(O)OP(=O)(O)O)[C@@H](O)[C@H]2O)c(=O)[nH]1` [GTP], the “Effect on interaction between Upf1p and eRF3” value [1] is reported as “not affected”.

`NC[C@@H]1O[C@H](O[C@H]2[C@@H](O)[C@H](O[C@@H]3[C@@H](O)[C@H](N)C[C@H](N)[C@H]3O[C@H]3O[C@H](CO)[C@@H](O)[C@H](O)[C@H]3N)O[C@@H]2CO)[C@H](N)[C@@H](O)[C@@H]1O` [paromomycin] was tested, and the “Paromomycin sensitivity (hypersensitivity)” value ([2]; upf1Δ or upf2Δ strains) was “Neither the upf1Δ or upf2Δ strains demonstrate hypersensitivity”, the “Paromomycin sensitivity (zone of growth inhibition)” value ([2]; upf3Δ strain vs isogenic wild-type, disc containing 1 mg of paromomycin) was “more sensitive to paromomycin than the isogenic wild-type strain” and the “β-galactosidase activity (−1 frameshift reporter)” value ([3]; upf3Δ cells carrying pF8, liquid media, different concentrations of the drug) was “increased continuously with increased concentrations of paromomycin”. For the same molecule, the β-galactosidase activity ([3]; wild-type cells containing pF8, or any strain carrying pTI25 (zero frame control)) was “unaffected”.

B1: Upf1K436A: purified K436A form of the Upf1p, mutation of the conserved lysine residue in position 436 (protein, UniProt P30771 1-971, looked up, variant K436A)
ATP-dependent helicase NAM7: T1 sequence (P30771 1-971) with K436A
With B1 the “Reduction of interaction with eRF1 relative to wild-type Upf1” value [4] was 4 to 6 fold and the “Interaction with eRF3 relative to wild-type Upf1p” value [5] was “equivalent affinity as the wild-type Upf1p”.
